As a reminder, the LD50 is the dose at which mortality reaches 50%. Read a low LD50 as greater toxicity.

We go through two compounds from patent publication US5130120A, “Paramagnetic DTPA and EDTA alkoxyalkylamide complexes as MRI agents” (Mallinckrodt Medical, Inc., priority 1988, dated 1992).

Molecules are shown by their SMILES.

Series [1] relates to ICR mice. The series is described as follows: acute intravenous toxicity (LD50) in ICR mice, 7-day observation. To be noted: for Deaths, Delayed (1-24 hr) / Deaths, Delayed (1-7 days) / Deaths, Immediate (0-1 hr) / Deaths, Total / Body Weight Change: 0.68 M; for Deaths, Total: deaths/animals. It is filed as in vivo. Here is the method:
The acute intravenous toxicity of the compound of Example II was determined as follows: ICR mice, at 1 to 4 per dose level, received single intravenous injections of the test substance via a lateral tail vein at the rate of approximately 1 ml/minute. The test substances were at concentrations chosen to result in dose volumes of 5 to 75 ml/kg body weight. Dosing began at a volume of 10 ml/kg. Dose adjustments up or down were made to closely bracket the estimated LD50 with 4 animals per group (2 males and 2 females). Observations of the mice were recorded at times 0, 0.5, 1,2,4 and 24 hours and once daily thereafter for up to 7 days post injection. On the 7th day post injection, the mice were euthanized, weighed and necropsied. Abnormal tissues were noted. At this time a decision was made as to whether any histopathology was to be performed and whether or not the tissues should be retained. Necropsies were also performed on mice expiring after 24 hours post-injection, except for dead mice found on the weekends. The LD50 values, along with 95% CI were calculated using a modified Behrens-Reed-Meunch method. The results for the complex of Example II are reported below:
Sex and Weight Range of Mice: Males(18.0-20.3 g) Females (19.0-21.7 g).

The nature of series [2]: T1 and T2 relaxivity, RADX (10 megahertz) NMR analyzer, 37° C. In kind it is physicochemical. Here is the method: T1 and T2 relaxivity curves of the complex of Example II were obtained using a RADX (10 megahertz) NMR analyzer. The RADX analyzer was thermally stabilized at 37° C. before performing any T1 or T2 measurements. Overall range tuning and mid-range calibration were performed on a 37° C. warmed T1 standard at the beginning of the experiment, according to manufacturer's instructions. Subsequent to calibration, T1 standards were tested to verify calibration and linearity.
Ten millimolar solutions of the complex were prepared in sterile water for injection ("SWFI") and in 4% human serum albumin ("HSA")/0.9% NaCl. A series of lower concentrations (0.25, 0.50, 1.0, 2.5 and 5.0 mM) were prepared to form a concentration curve. A sample of each prepared concentration was warmed to 37° C. in an NMR sample tube prior to assay. Triplicate T1 and T2 values were obtained on each dilution.
Separate linear regressions were determined using the reciprocal T1 and T2 mean values for the complex diluted in SWFI and 4% HSA. The relaxivity curves were generated by plotting the reciprocal T1 or T2 value against concentration. The following relaxation rates were determined for the complex of Example II: […]

The nature of series [3]: solubility in water. To be noted: glassy solid. In kind it is physicochemical. As to the method:
A 15% excess of the bis(2-methoxyethylamide) of EDTA produced by the procedure described in Example XI (1.1 g, 0.0026 mol) was dissolved in water (10 ml) and MnCO3 (0.27 g, 0.0023 mol) was added. Upon warming for 30 minutes, the solution became homogeneous. The solution was taken to dryness under reduced pressure.

`COCCNC(=O)CN(CCN(CCN(CC(=O)[O-])CC(=O)NCCOC)CC(=O)[O-])CC(=O)[O-].[Gd+3]` [Example II, {N,N"-Bis[N-(2-methoxyethyl)-carbamoylmethyl]diethylenetriamine-N,N',N"-triaceto}gadolinium (III)]: the “Deaths, Delayed (1-24 hr)” value in series [1] (6.8 mmol/kg i.v., ICR mice) is given as 0; in series [1] (13.6 mmol/kg i.v., ICR mice), 0; in series [1] (20.4 mmol/kg i.v., ICR mice), 0; in series [1] (27.2 mmol/kg i.v., ICR mice), 0. The “Deaths, Delayed (1-7 days)” value in series [1] (6.8 mmol/kg i.v., ICR mice) is listed as 0; in series [1] (13.6 mmol/kg i.v., ICR mice), 0; in series [1] (20.4 mmol/kg i.v., ICR mice), 0. Besides, the “Deaths, Immediate (0-1 hr)” value in series [1] (6.8 mmol/kg i.v., ICR mice) is reported as 0; in series [1] (13.6 mmol/kg i.v., ICR mice), 0; in series [1] (20.4 mmol/kg i.v., ICR mice), 1; in series [1] (27.2 mmol/kg i.v., ICR mice), 2; in series [1] (34.0 mmol/kg i.v., ICR mice), 4. Also, the “Deaths, Total” value was 0/2 in series [1] (6.8 mmol/kg i.v., ICR mice); 0/2 in series [1] (13.6 mmol/kg i.v., ICR mice); 1/4 in series [1] (20.4 mmol/kg i.v., ICR mice); 4/4 in series [1] (27.2 mmol/kg i.v., ICR mice); 4/4 in series [1] (34.0 mmol/kg i.v., ICR mice). The “Body Weight Change” value is given as “+2.1 g” in series [1] (6.8 mmol/kg i.v., female ICR mice); -1.1 g in series [1] (6.8 mmol/kg i.v., male ICR mice); “+1.4 g” in series [1] (13.6 mmol/kg i.v., female ICR mice); “+1.6 g” in series [1] (13.6 mmol/kg i.v., male ICR mice); -3.2 g in series [1] (20.4 mmol/kg i.v., female ICR mice); -1.1 g in series [1] (20.4 mmol/kg i.v., male ICR mice). The “body weight gain of surviving mice” value in series [1] (7-day post-injection period, i.v., ICR mice) was “failed to gain weight”. The “95% Confidence Limits of LD50” value in series [1] (ICR mice, single i.v., 7 days) lay within 17.4 to 29.0 mmol/kg. In addition, the LD50 in series [1] (ICR mice, single i.v., 7 days post injection, modified Behrens-Reed-Meunch method) is given as 22.5 mmol/kg. In addition, in series [1] (one female dosed with 20.4 mmol/kg i.v.), the “gross organ abnormality at necropsy” value is recorded as “a "pale" colored liver”. In addition, the “gross organ abnormality at necropsy, other mice” value in series [1] (other mice at 20.4 mmol/kg or lower, i.v.) was “No other mice at 20.4 mmol/kg or lower showed similar abnormalities”. In addition, the “order of i.v. toxicity” value in series [1] (preliminary tests, ICR mice) was “low order of i.v. toxicity”. The figures for the “T1 Relaxation Rate” value in series [2] (4% HSA/0.9% NaCl) and in series [2] (H2O (SWFI)) were 4400 M⁻¹ s⁻¹ and 4690 M⁻¹ s⁻¹, respectively. Further, the figures for the “T2 Relaxation Rate” value in series [2] (4% HSA/0.9% NaCl) and in series [2] (H2O (SWFI)) were 6380 M⁻¹ s⁻¹ and 4810 M⁻¹ s⁻¹, respectively.

In the case of `COCCNC(=O)CN(CCN(CC(=O)[O-])CC(=O)NCCOC)CC(=O)[O-].[Mn+2]` [Example X, {N,N'-Bis[N-(2-methoxyethyl)carbamoyl-methyl]-ethylenediamine-N,N'-diaceto}manganese(II)], the solubility in water entry in series [3] is given as “very soluble in water”.
